In data set [1] the test system is HIV-1IIIB. As to the kind of experiment: Co-cultivation assay (C8166 cells with H9 cells chronically infected with HIV-1IIIB). The data set is classed as cell-based. The conditions noted are these: highest concentration treated; C8166 + H9/HIV-1IIIB, 72 h. As to the method:
3×10^4 C8166 cells were pre-treated with various concentrations of 6,6′-bieckol for 2 h and co-cultured with 3×10^3 H9 cells chronically infected with HIV-1IIIB at 37° C. in a humidified atmosphere of 5% CO2. After 72 h of incubation, the number of syncytia formed was counted using a microscope.

In data set [2] the test system is HIV-1IIIB. Description: HIV-1 p24 antigen capture ELISA in H9 cells. The conditions noted are these: ELISA (FIG. 1D). The data set is classed as cell-based. Set-up: dose or concentration left out as unconfirmed. As to the method:
H9 cells (3×10^6 cells/ml) were incubated in the presence or absence of HIV-1IIIB for 1 h at 37° C. Cells were washed to remove unbound viruses and resuspended at 3×10^5 cells/ml in culture medium. Aliquots of 1 ml were placed in a 24-well culture plate containing an equal volume of medium with/without 6,6′-bieckol.
AZT was treated as positive control. In order to determine the amount of virus released to the medium, HIV-1 p24 antigen capture ELISA was carried out with a commercial kit (Perkin-Elmer Life Sciences, Boston, Mass.) according to the manufacturer's instructions.

Another data set relates to CEM-SS or H9 cells. Description: Cell viability (MTT) assay. The data set is classed as cell-based, human. The conditions noted are these: up to 500 μM, 72 h. As to the method: H9 and H9/HIV-1IIIB cell lines were obtained through American Type of Culture Collection (Manassas, Va., USA). CEM-SS cell line from Dr. P. Nara and C8166 cell line from Dr. G. Farrar were provided by the EU Programme EVA Centre for AIDS Reagents, NIBSC, UK. CEM-SS, C8166, H9 and H9/HIV-1IIIB cell lines were grown in RPMI 1640 medium supplemented with 10% FBS, 100 μg of streptomycin per ml and 100 U of penicillin per ml. HIV-1IIIB virus stock was obtained from the culture supernatant of chronically infected H9/HIV-1IIIB cells. Cell-free virus was harvested from the supernatants by centrifugation and filtration through 0.22 μM filter. The virus stocks were stored as small aliquots at […] until use.
The cytotoxic concentrations of 6,6′-bieckol were determined by MTT assay, a method based on the reduction of 3-(4,5-dimethylthiazol-2-yl)-2,5-diphenyltetrazolium bromide (MTT). Four hundreds of microliters of medium containing CEM-SS or H9 cells were cultured into a 48-well plate at a density of 10^5 cells/ml. The plate was incubated overnight and treated with 100 μl of RPMI 1640 medium with/without 6,6′-bieckol. After 72 h of incubation, 100 μl of 500 μg/ml MTT was added to each well and the plate was incubated for another 4 h at 37° C. […] Optical density was measured at 540 nm with a microplate reader. […]

Data set [3] has as its target T1, HIV-1 reverse transcriptase (Human immunodeficiency virus type 1 group M subtype B, UniProt P04585).
T1 construct: HIV-1 reverse transcriptase in the viral lysate; endogenous in cells; host or cells: lysate of virus particles produced by infected cell culture (viral lysate)
As to the kind of experiment: Reverse transcriptase activity assay (fluorescence RT kit, viral lysate). The data set is classed as biochemical. Set-up: HIV-1 RT enzyme activity inhibited: dose or concentration left out as unconfirmed. The conditions noted are these: RT from cell culture supernatant. The protocol:
The activity of HIV-1 reverse transcriptase in the viral lysate was evaluated using a fluorescence RT assay kit (InvitroGen) according to the manufacturer's protocol. Briefly, 20 μl of reaction mixture containing a template/primer hybrid, poly(A)/d(T)16, and dTTP as a triphosphate substrate was added to the wells of amicrotiter plate and mixed with 5 μl of viral lysate containing various concentrations of 6,6′-bieckol. After incubation at 37° C. for 1 h, the reaction was stopped by the addition of 2 μl of 200 mM EDTA to each reaction. Fluorescence intensity was measured at 480 nm (excitation) and 520 nm (emission) with a GENiosmicroplate reader (Tecan Austria GmbH, Austria) after the addition of 173 μl of fluorescent PicoGreenreagent, which selectively binds to dsDNA or DNA-RNA heteroduplexes over single-stranded nucleic acids or free nucleotides.

Data set [4] has as its system HIV-1IIIB. As to the kind of experiment: Western blot analysis of p24 / gag proteins in HIV-1IIIB infected H9 cells. The data set is classed as cell-based. The protocol: 1×10^6 cells/ml H9 cells were cultured in cell culture plates. Following sample treatment, plates were incubated for 2 h and infected with HIV-1IIIB at 200 CCID50. After 96 h of incubation at 37° C., cells were pelleted at 1000 rpm for 10 min and supernatant was harvested. The cells were washed 3 times with PBS and lysed with 500 μl of lysis buffer containing 50 mM Tris-HCl (pH 7.5), 0.4% Nonidet P-40, 120 mM NaCl, 1.5 mM MgCl2, 2 mM phenylmethylsulfonyl fluoride, 80 μg/ml leupeptin, 3 mM NaF, and 1 mM DTT. Hundred micrograms of total protein was used for immunoblot analysis.
Culture supernatant containing virus was filtered through 0.22 μm filter, mixed with 30% polyethylene glycol (PEG) (50% v/v) with 0.4 M NaCl, and virus particles were pelleted at 15000 rpm for 45 min. The viral pellets were lysed, resuspended in SDS sample buffer and equal volume of viral lysates (20 μl) was loaded onto SDS gel. The proteins were subjected to denaturating SDSAGE in 25 mM Tris, 192 mM glycine, 0.1% SDS with a 4% stacking, and 10% separating gel. Separated proteins were transferred onto a nitrocellulose membrane, blocked in Tris buffered saline containing 0.1% (v/v) Tween 20 (TBS-T) and 5% skim milk powder. The membrane was probed with mouse anti-p24 monoclonal antibody (1:500, SantaCruz) and horseradish peroxidase (HRP)-conjugated anti-mouse IgG secondary antibody (1:5000, SantaCruz). […]
On the technique in general: In western blotting, separated proteins are transferred to a membrane and probed.

Broadly, the inhibition is how much of the control response was suppressed. Take `Oc1cc(O)cc(Oc2c(O)cc(O)c3c2Oc2c(O)cc(O)c(-c4c(O)cc(O)c5c4Oc4c(O)cc(O)c(Oc6cc(O)cc(O)c6)c4O5)c2O3)c1` [6,6′-bieckol]: the “inhibition of syncytia formation in co-cultivation assay” value in the data set with HIV-1IIIB [1] was “around 80%”. Further, the “inhibition of production of p24 antigen” value in the data set with HIV-1IIIB [2] is on record as “more than 90%”. The cytotoxicity result in the data set with CEM-SS or H9 cells is “no cytotoxicity”. Besides, the inhibition at 1 µM in data set [3] (1 μM, read-out: HIV-1 RT enzyme inhibition) turned out to be 50.5%. In addition, in data set [3], the “HIV-1 RT enzyme activity inhibited” value is recorded as 96.33%. Further, the “protease inhibition judged from p55 gag related protein bands” value in the data set on HIV-1IIIB [4] (Western blot) is “did not inhibit the protease”. Further, the “inhibition of p24 antigen production versus AZT” value with HIV-1IIIB [4] (of 6,6′-bieckol vs AZT 5 μM (FIG. 2C)) was “comparable to that of AZT”.
